Assay results taken from ChEMBL document CHEMBL1135237, “Synthesis and antibacterial activity of linezolid analogues” (2002).
Values after ≈ are worked out from the molar mass of the structure shown.

Columns and labels:
Format in all cases: functional
Enterococcus faecalis [1] = assay: Compound was evaluated for minimum inhibitory concentration against Enterococcus faecalis 68
Enterococcus faecalis [2] = assay: Compound was evaluated for minimum inhibitory concentration against Enterococcus faecalis 50
Streptococcus pyogenes [3] = assay: Compound was evaluated for minimum inhibitory concentration against Streptococcus pyogenes 102 strain
Streptococcus pyogenes [4] = assay: Compound was evaluated for minimum inhibitory concentration against Streptococcus pyogenes 114 strain
Streptococcus sp. [5] = assay: Compound was evaluated for minimum inhibitory concentration against Streptococcus A 29 strain
Streptococcus sp. [6] = assay: Compound was evaluated for minimum inhibitory concentration against Streptococcus A 44 strain
Staphylococcus aureus [7] = assay: Compound was evaluated for minimum inhibitory concentration against Staphylococcus aureus 9616 strain
Staphylococcus aureus [8] = assay: Compound was evaluated for minimum inhibitory concentration against Staphylococcus aureus 966 strain
Staphylococcus aureus [9] = assay: Compound was evaluated for minimum inhibitory concentration against Staphylococcus aureus 9721 strain
Staphylococcus aureus [10] = assay: Compound was evaluated for minimum inhibitory concentration against Staphylococcus aureus 975 strain
Staphylococcus aureus [11] = assay: Compound was evaluated for minimum inhibitory concentration against Staphylococcus aureus 9776 strain
[12] = test system: Staphylococcus epidermidis; assay: Compound was evaluated for minimum inhibitory concentration against Staphylococcus epidermidis 975 strain
[13] = test system: Staphylococcus epidermidis; assay: Compound was evaluated for minimum inhibitory concentration against Staphylococcus epidermidis 9759 strain
Streptococcus pneumoniae [14] = assay: Compound was evaluated for minimum inhibitory concentration against Streptococcus pneumoniae 9753 strain
Streptococcus pneumoniae [15] = assay: Compound was evaluated for minimum inhibitory concentration against Streptococcus pneumoniae 9757 strain
Streptococcus pneumoniae [16] = assay: Compound was evaluated for minimum inhibitory concentration against Streptococcus pneumoniae 9798 strain
[17] = test system: Staphylococcus epidermidis; assay: Compound was evaluated for minimum inhibitory concentration against Staphylococcus epidermidis 9753 strain
Enterococcus faecalis [18] = assay: Compound was evaluated for minimum inhibitory concentration against Enterococcus faecalis 50 strain

Structure (SMILES)	MIC (Enterococcus faecalis [1]) [µg/mL]	MIC (Enterococcus faecalis [2]) [µg/mL]	MIC (Streptococcus pyogenes [3]) [µg/mL]	MIC (Streptococcus pyogenes [4]) [µg/mL]	MIC (Streptococcus sp. [5]) [µg/mL]	MIC (Streptococcus sp. [6]) [µg/mL]	MIC (Staphylococcus aureus [7]) [µg/mL]	MIC (Staphylococcus aureus [8]) [µg/mL]	MIC (Staphylococcus aureus [9]) [µg/mL]	MIC (Staphylococcus aureus [10]) [µg/mL]	MIC (Staphylococcus aureus [11]) [µg/mL]	MIC [12] [µg/mL]	MIC [13] [µg/mL]	MIC (Streptococcus pneumoniae [14]) [µg/mL]	MIC (Streptococcus pneumoniae [15]) [µg/mL]	MIC (Streptococcus pneumoniae [16]) [µg/mL]	MIC [17] [µg/mL]	MIC (Enterococcus faecalis [18]) [µg/mL]
CC(=O)NC[C@H]1CN(c2ccc(N3CCN(c4ccc(F)cc4)CC3)c(F)c2)C(=O)O1	4 (≈ 9.29 µM)	1 (≈ 2.32 µM)	1 (≈ 2.32 µM)	2 (≈ 4.65 µM)	1 (≈ 2.32 µM)	1 (≈ 2.32 µM)	2 (≈ 4.65 µM)	1 (≈ 2.32 µM)	1 (≈ 2.32 µM)	0.5 (≈ 1.16 µM)	1 (≈ 2.32 µM)	1 (≈ 2.32 µM)	1 (≈ 2.32 µM)	1 (≈ 2.32 µM)	1 (≈ 2.32 µM)	1 (≈ 2.32 µM)	0.5 (≈ 1.16 µM)	
CC(=O)NC[C@H]1CN(c2ccc(N3CCN(c4ccccc4)CC3)c(F)c2)C(=O)O1	2 (≈ 4.85 µM)	1 (≈ 2.42 µM)	1 (≈ 2.42 µM)	1 (≈ 2.42 µM)	0.5 (≈ 1.21 µM)	2 (≈ 4.85 µM)	1 (≈ 2.42 µM)	2 (≈ 4.85 µM)	1 (≈ 2.42 µM)	1 (≈ 2.42 µM)	1 (≈ 2.42 µM)	1 (≈ 2.42 µM)	1 (≈ 2.42 µM)	0.5 (≈ 1.21 µM)	0.25 (≈ 0.606 µM)	1 (≈ 2.42 µM)	0.5 (≈ 1.21 µM)	
COc1ccc(N2CCN(c3ccc(N4C[C@H](CNC(C)=O)OC4=O)cc3F)CC2)cc1		1 (≈ 2.26 µM)	1 (≈ 2.26 µM)	2 (≈ 4.52 µM)	1 (≈ 2.26 µM)	1 (≈ 2.26 µM)	1 (≈ 2.26 µM)	2 (≈ 4.52 µM)	1 (≈ 2.26 µM)	1 (≈ 2.26 µM)	1 (≈ 2.26 µM)	1 (≈ 2.26 µM)	1 (≈ 2.26 µM)	1 (≈ 2.26 µM)	1 (≈ 2.26 µM)	1 (≈ 2.26 µM)	1 (≈ 2.26 µM)	
CC(=O)NC[C@H]1CN(c2ccc(N3CCN(C(c4ccccc4)c4ccccc4)CC3)c(F)c2)C(=O)O1	32 (≈ 63.7 µM)	8 (≈ 15.9 µM)	32 (≈ 63.7 µM)	16 (≈ 31.8 µM)	4 (≈ 7.96 µM)	32 (≈ 63.7 µM)	8 (≈ 15.9 µM)	8 (≈ 15.9 µM)	16 (≈ 31.8 µM)	4 (≈ 7.96 µM)	8 (≈ 15.9 µM)	8 (≈ 15.9 µM)	16 (≈ 31.8 µM)	4 (≈ 7.96 µM)	4 (≈ 7.96 µM)	8 (≈ 15.9 µM)	4 (≈ 7.96 µM)	
CC(=O)NC[C@H]1CN(c2ccc(N3CCOCC3)c(F)c2)C(=O)O1 [LINEZOLID]			0.5 (≈ 1.48 µM)	0.5 (≈ 1.48 µM)	0.25 (≈ 0.741 µM)	0.5 (≈ 1.48 µM)	1 (≈ 2.96 µM)	0.5 (≈ 1.48 µM)	0.5 (≈ 1.48 µM)	0.25 (≈ 0.741 µM)	0.5 (≈ 1.48 µM)	0.5 (≈ 1.48 µM)	0.5 (≈ 1.48 µM)				0.25 (≈ 0.741 µM)	0.5 (≈ 1.48 µM)
